Type in all cases: cell-based
For one test, the system named is E. Coli SK 12140. The experiment in a line: MIC by standard agar inclusion method, E. Coli SK 12140. The following applies: Escherichia coli.
The subject of another test is Kleb. pneumo. SK 4200. The experiment in a line: MIC by standard agar inclusion method, Kleb. pneumo. SK 4200.
The subject of test [1] is Entero. aerogenes ATCC 13048. The test is described as follows: MIC by standard agar inclusion method, Entero. aerogenes ATCC 13048. The following applies: Klebsiella aerogenes, ATCC13048.
The test system of test [2] is Serratia marc. ATCC 13880. The test is described as follows: MIC by standard agar inclusion method, Serratia marc. ATCC 13880. As to conditions: ATCC13880.
The next test has as its system Strep. faecalis HH 34358. The experiment in a line: MIC by standard agar inclusion method, Strep. faecalis HH 34358. The following applies: Enterococcus faecalis, HH34358.
A further test deals with S. aureus HH 127. The experiment in a line: MIC by standard agar inclusion method, S. aureus HH 127. As to conditions: Staphylococcus aureus, HH127.
The subject of another test is E. Coli HH 33779. The test is described as follows: MIC by standard agar inclusion method, E. Coli HH 33779. As to conditions: Escherichia coli.
The next test deals with Shigella paradysentiae. The experiment in a line: MIC by standard agar inclusion method, Shigella paradysentiae.
A further test has as its system Salmonella ATCC 12176. The experiment in a line: MIC by standard agar inclusion method, Salmonella ATCC 12176. The following applies: ATCC12176.
Another test relates to S. aureus SK 23390. The test is described as follows: MIC by standard agar inclusion method, S. aureus SK 23390. The following applies: Staphylococcus aureus, SK23390.
In a further test the test system is Kleb. pneumo. SK 1200. The experiment in a line: MIC by standard agar inclusion method, Kleb. pneumo. SK 1200.
For a further test, the system named is S. aureus Villaluz. The test is described as follows: MIC by standard agar inclusion method, S. aureus Villaluz. As to conditions: Staphylococcus aureus.
The subject of another test is Pseudo. aeruginosa HH63. The experiment in a line: MIC by standard agar inclusion method, Pseudo. aeruginosa HH63. As to conditions: Pseudomonas aeruginosa.

Converted amounts (≈) assume the structure as drawn.

As for `Cc1nnc(SCC2=C(C(=O)O)N3C(=O)C(NC(=O)CS(=O)(=O)CC#N)[C@H]3SC2)s1` (stereo partly drawn) [Compound 09346, 7-Cyanomethylsulfonylacetamido-3-(5-methyl-1,3,4-thiadiazol-2-ylthiomethyl)-3-cephem-4-carboxylic acid], the MIC against E. Coli SK 12140 is 3.1 µg/mL (≈ 6.33 µM); against Kleb. pneumo. SK 4200, 6.3 µg/mL (≈ 12.9 µM); in test [1], 12.5 µg/mL (≈ 25.5 µM); in [2], above 200 µg/mL; in the test on Strep. faecalis HH 34358 it was 25 µg/mL (≈ 51.1 µM); against S. aureus HH 127, 1.6 µg/mL (≈ 3.27 µM). Also, the minimum inhibitory concentration (MIC) was found to be 6.3 µg/mL (≈ 12.9 µM) against E. Coli HH 33779; 3.1 µg/mL (≈ 6.33 µM) in the test on Shigella paradysentiae; 6.3 µg/mL (≈ 12.9 µM) in the test on Salmonella ATCC 12176; 1.6 µg/mL (≈ 3.27 µM) against S. aureus SK 23390; 3.1 µg/mL (≈ 6.33 µM) against Kleb. pneumo. SK 1200; 100 µg/mL (≈ 204 µM) in the test with S. aureus Villaluz. The minimal inhibitory concentration (MIC) in the test on Pseudo. aeruginosa HH63 was above 200 µg/mL.

`CC(=O)OCC1=C(C(=O)O)N2C(=O)C(NC(=O)CS(=O)(=O)CC#N)C2SC1` (stereo not drawn) [Compound 90246, 7-cyanomethylsulfonylacetamidocephalosporanic acid]: the minimum inhibitory concentration (MIC) in the test with E. Coli SK 12140 was 6.3 µg/mL (≈ 15.1 µM); against Kleb. pneumo. SK 4200, 25 µg/mL (≈ 59.9 µM); in [1], 50 µg/mL (≈ 120 µM); in [2], above 200 µg/mL; in the test on Strep. faecalis HH 34358 it was 50 µg/mL (≈ 120 µM); with S. aureus HH 127, 1.6 µg/mL (≈ 3.83 µM). In addition, the MIC with E. Coli HH 33779 is 25 µg/mL (≈ 59.9 µM); against Shigella paradysentiae it was 6.3 µg/mL (≈ 15.1 µM); against Salmonella ATCC 12176 it was 3.1 µg/mL (≈ 7.43 µM); in the test with S. aureus SK 23390, 1.6 µg/mL (≈ 3.83 µM); against Kleb. pneumo. SK 1200, 6.3 µg/mL (≈ 15.1 µM); in the test with S. aureus Villaluz it was 25 µg/mL (≈ 59.9 µM). The compound further showed an MIC with Pseudo. aeruginosa HH63 above 200 µg/mL.

Turning to `CC(=O)OCC1=C(C(=O)O)N2C(=O)C(NC(=O)CSCC#N)C2SC1` (stereo not drawn) [Compound 79336, 7-Cyanomethylmercaptoacetamidocephalosporanic acid], the minimum inhibitory concentration (MIC) in the test with E. Coli SK 12140 is 6.3 µg/mL (≈ 16.3 µM); in the test with Kleb. pneumo. SK 4200, 1.6 µg/mL (≈ 4.15 µM); in test [1], above 200 µg/mL; in test [2], above 200 µg/mL; in the test with Strep. faecalis HH 34358, 12.5 µg/mL (≈ 32.4 µM); against S. aureus HH 127, 0.2 µg/mL (≈ 0.519 µM). Further, the minimal inhibitory concentration (MIC) amounted to 12.5 µg/mL (≈ 32.4 µM) against E. Coli HH 33779; 6.3 µg/mL (≈ 16.3 µM) with Shigella paradysentiae; 1.6 µg/mL (≈ 4.15 µM) with Salmonella ATCC 12176; 0.8 µg/mL (≈ 2.08 µM) in the test on S. aureus SK 23390; 6.3 µg/mL (≈ 16.3 µM) in the test with Kleb. pneumo. SK 1200; 25 µg/mL (≈ 64.9 µM) in the test with S. aureus Villaluz. This compound showed an MIC with Pseudo. aeruginosa HH63 above 200 µg/mL.

Regarding `Cn1nnnc1SCC1=C(C(=O)O)N2C(=O)C(NC(=O)CS(=O)(=O)CC#N)[C@H]2SC1` (stereo partly drawn) [Compound 72346, 7-Cyanomethylsulfonylacetamido-3-(1-methyltetrazol-5-ylthiomethyl)-3-cephem-4-carboxylic acid], the minimum inhibitory concentration (MIC) with E. Coli SK 12140 was 1.6 µg/mL (≈ 3.38 µM); against Kleb. pneumo. SK 4200, 1.6 µg/mL (≈ 3.38 µM); in test [1] it was 6.3 µg/mL (≈ 13.3 µM); in test [2] it was above 200 µg/mL; against Strep. faecalis HH 34358, 50 µg/mL (≈ 106 µM); in the test with S. aureus HH 127, 1.6 µg/mL (≈ 3.38 µM). Moreover, the minimal inhibitory concentration (MIC) with E. Coli HH 33779 is 3.1 µg/mL (≈ 6.55 µM); against Shigella paradysentiae, 1.6 µg/mL (≈ 3.38 µM); with Salmonella ATCC 12176, 1.6 µg/mL (≈ 3.38 µM); in the test with S. aureus SK 23390, 1.6 µg/mL (≈ 3.38 µM); in the test with Kleb. pneumo. SK 1200, 1.6 µg/mL (≈ 3.38 µM); against S. aureus Villaluz, 25 µg/mL (≈ 52.8 µM). In the test on Pseudo. aeruginosa HH63, this compound yielded an MIC above 200 µg/mL.

Turning to `Cn1nnnc1SCC1=C(C(=O)O)N2C(=O)C(NC(=O)CSCC#N)[C@H]2SC1` (stereo partly drawn) [Compound 94436, 7-Cyanomethylmercaptoacetamido-3-(1-methyltetrazol-5-ylthiomethyl)-3-cephem-4-carboxylic acid], the MIC in the test on E. Coli SK 12140 was 0.8 µg/mL (≈ 1.81 µM); in the test with Kleb. pneumo. SK 4200, 1.6 µg/mL (≈ 3.62 µM); in test [1], 12.5 µg/mL (≈ 28.3 µM); in test [2], above 200 µg/mL; with Strep. faecalis HH 34358, 50 µg/mL (≈ 113 µM); with S. aureus HH 127, 0.4 µg/mL (≈ 0.906 µM). Moreover, the MIC against E. Coli HH 33779 is 1.6 µg/mL (≈ 3.62 µM); in the test with Shigella paradysentiae, 0.8 µg/mL (≈ 1.81 µM); in the test on Salmonella ATCC 12176, 0.4 µg/mL (≈ 0.906 µM); in the test on S. aureus SK 23390, 0.4 µg/mL (≈ 0.906 µM); in the test on Kleb. pneumo. SK 1200, 1.6 µg/mL (≈ 3.62 µM); in the test on S. aureus Villaluz, 12.5 µg/mL (≈ 28.3 µM). Besides, the minimum inhibitory concentration (MIC) in the test with Pseudo. aeruginosa HH63 was above 200 µg/mL.

For the compound `Cc1nnc(SCC2=C(C(=O)O)N3C(=O)C(NC(=O)CSCC#N)[C@H]3SC2)s1` (stereo partly drawn) [Compound 21436, 7-Cyanomethylmercaptoacetamido-3-(5-methyl-1,3,4-thiadiazol-2-ylthiomethyl)-3-cephem-4-carboxylic acid], the minimum inhibitory concentration (MIC) against E. Coli SK 12140 was 1.6 µg/mL (≈ 3.5 µM); against Kleb. pneumo. SK 4200, 1.6 µg/mL (≈ 3.5 µM); in test [1], above 200 µg/mL; in test [2] it was above 200 µg/mL; against Strep. faecalis HH 34358, 6.3 µg/mL (≈ 13.8 µM); against S. aureus HH 127 it was 0.2 µg/mL (≈ 0.437 µM). Also, the MIC in the test with E. Coli HH 33779 is 6.3 µg/mL (≈ 13.8 µM); with Shigella paradysentiae, 1.6 µg/mL (≈ 3.5 µM); against Salmonella ATCC 12176, 1.6 µg/mL (≈ 3.5 µM); against S. aureus SK 23390 it was 0.1 µg/mL (≈ 0.219 µM); with Kleb. pneumo. SK 1200, 0.8 µg/mL (≈ 1.75 µM); in the test on S. aureus Villaluz, 25 µg/mL (≈ 54.6 µM). The same compound yielded a minimal inhibitory concentration (MIC) against Pseudo. aeruginosa HH63 above 200 µg/mL.

As a reminder, the MIC is the lowest concentration found to suppress growth.
